Like-named read-outs stand apart in the source and are kept apart here.
Tests used:
GSK3b = target: T1, GSK3b (Homo sapiens, UniProt P49841); assay: Kinase panel assay (radiolabelled); assay type: biochemical
T1 construct: purchased Reaction Biology Corp

ROCK1 = target: T2, ROCK1 (Homo sapiens, UniProt Q13464); assay: Kinase panel assay (radiolabelled); assay type: biochemical; conditions: ATP 10 μM
T2 construct: purchased Reaction Biology Corp

JNK2 = target: T3, JNK2 (Homo sapiens, UniProt P45984); assay: Kinase panel assay (radiolabelled); assay type: biochemical; conditions: ATP 10 μM
T3 construct: purchased Reaction Biology Corp
T3 sequence (P45984 whole entry): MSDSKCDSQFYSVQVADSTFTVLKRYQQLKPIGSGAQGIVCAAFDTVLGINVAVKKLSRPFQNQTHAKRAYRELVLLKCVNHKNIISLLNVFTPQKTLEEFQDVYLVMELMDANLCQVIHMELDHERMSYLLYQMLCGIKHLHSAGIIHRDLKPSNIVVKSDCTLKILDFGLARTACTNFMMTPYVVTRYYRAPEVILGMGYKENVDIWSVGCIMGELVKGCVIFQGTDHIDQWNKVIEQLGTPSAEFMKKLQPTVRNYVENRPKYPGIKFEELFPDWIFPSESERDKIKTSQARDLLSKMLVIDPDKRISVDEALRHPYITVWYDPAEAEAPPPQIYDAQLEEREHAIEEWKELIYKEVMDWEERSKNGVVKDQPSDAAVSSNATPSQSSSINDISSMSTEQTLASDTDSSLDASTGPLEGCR

AMPK(A1/B1/G1) [1] = target: T4, AMPK(A1/B1/G1) (Homo sapiens, UniProt P54619+Q13131+Q9Y478); assay: Kinase panel assay (radiolabelled); assay type: biochemical; conditions: 30 μM compound, ATP 10 μM; duplicates Data 1/Data 2; read-out: % Enzyme Activity (relative to DMSO controls)
T4 construct: purchased Reaction Biology Corp

AMPK(A1/B1/G1) [2] = target: T5, AMPK(A1/B1/G1) (Homo sapiens, UniProt Q13131); assay: Kinase panel assay (radiolabelled); assay type: biochemical; conditions: 30 μM compound, ATP 10 μM; duplicates Data 1/Data 2
T5 construct: purchased Reaction Biology Corp

TRKA = target: T6, TRKA (Homo sapiens, UniProt P04629); assay: Kinase panel assay (radiolabelled); assay type: biochemical; conditions: ATP 10 μM
T6 construct: purchased Reaction Biology Corp
T6 sequence (P04629 33-796): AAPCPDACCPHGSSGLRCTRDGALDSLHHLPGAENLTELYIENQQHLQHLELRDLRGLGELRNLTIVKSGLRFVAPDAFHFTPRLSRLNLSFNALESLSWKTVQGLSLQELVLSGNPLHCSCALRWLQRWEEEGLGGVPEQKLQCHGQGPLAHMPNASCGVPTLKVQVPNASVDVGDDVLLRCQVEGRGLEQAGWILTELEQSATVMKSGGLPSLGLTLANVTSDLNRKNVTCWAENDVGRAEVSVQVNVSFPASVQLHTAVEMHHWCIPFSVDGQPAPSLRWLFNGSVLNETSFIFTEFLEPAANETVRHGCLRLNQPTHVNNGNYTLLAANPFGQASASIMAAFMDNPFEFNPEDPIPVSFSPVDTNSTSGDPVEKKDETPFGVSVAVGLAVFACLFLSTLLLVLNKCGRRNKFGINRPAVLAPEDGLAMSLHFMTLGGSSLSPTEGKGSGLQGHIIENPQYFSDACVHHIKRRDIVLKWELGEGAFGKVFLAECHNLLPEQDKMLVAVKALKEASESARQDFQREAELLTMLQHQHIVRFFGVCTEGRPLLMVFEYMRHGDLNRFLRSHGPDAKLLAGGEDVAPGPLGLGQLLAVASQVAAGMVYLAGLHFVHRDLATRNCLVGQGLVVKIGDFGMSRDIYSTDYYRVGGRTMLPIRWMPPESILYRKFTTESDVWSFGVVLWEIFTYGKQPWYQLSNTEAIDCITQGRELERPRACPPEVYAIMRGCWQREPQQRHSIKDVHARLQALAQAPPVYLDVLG

TNF-α = assay: Secreted TNF-α ELISA in LPS-induced BV-2 cells; assay type: cell-based, murine
Method: (§1) To evaluate the secreted level of Prostaglandin E2 (PGE2), Tumor necrosis factor (TNF-α), Interleukin (IL-6), Interleukin (IL-1β), BV2 cells were seeded in a 6 well plate at the density of 1.5 × 10^6 cells/well in DMEM and incubated for 24 h. Seeded cells sere pretreated and, activated with LPS for next 24 h. conditioned medium from treated cells were collected and stored at -80 degree for longer period of time. The amount of TNF-α, IL-1β, PGE2,and IL-6 were evaluated using the competitive enzyme immunoassay kit. PGE2 kit were obtained from (Cayman Chemical, Ann Arbor, MI, USA) and TNF-α, IL-1β, and IL-6 were measured using ELISA development kits (R&D Systems, Minneapolis, MN, USA). All the protocol was exactly followed as written in the manual.

IL-6 = assay: Secreted IL-6 ELISA in LPS-induced BV-2 cells; assay type: cell-based, murine
Method: as §1

DAPK2 = target: T7, DAPK2 (Homo sapiens, UniProt Q9UIK4); assay: Kinase panel assay (radiolabelled); assay type: biochemical; conditions: ATP 10 μM
T7 construct: purchased Reaction Biology Corp
T7 sequence (Q9UIK4 whole entry): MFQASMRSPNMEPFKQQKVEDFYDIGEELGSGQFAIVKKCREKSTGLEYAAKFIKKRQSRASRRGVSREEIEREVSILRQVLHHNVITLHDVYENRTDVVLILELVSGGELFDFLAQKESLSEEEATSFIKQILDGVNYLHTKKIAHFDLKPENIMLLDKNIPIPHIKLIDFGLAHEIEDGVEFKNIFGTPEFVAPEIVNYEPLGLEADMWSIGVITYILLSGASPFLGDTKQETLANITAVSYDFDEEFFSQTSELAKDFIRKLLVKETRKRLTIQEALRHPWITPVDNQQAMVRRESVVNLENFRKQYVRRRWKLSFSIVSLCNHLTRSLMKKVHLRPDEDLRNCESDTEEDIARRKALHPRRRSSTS

TRKC (G623E) = target: T8, TRKC (G623E) (Homo sapiens, UniProt Q16288, G623E); assay: Kinase panel assay (radiolabelled); assay type: biochemical; conditions: 30 μM compound, ATP 10 μM, duplicates Data 1/Data 2
T8 construct: purchased Reaction Biology Corp

EEF2K = target: T9, EEF2K (Homo sapiens, UniProt O00418); assay: Kinase panel assay (radiolabelled); assay type: biochemical; conditions: 30 μM compound, ATP 10 μM, duplicates Data 1/Data 2
T9 construct: purchased Reaction Biology Corp

PI3KC3 = target: T10, PI3KC3 (Homo sapiens, UniProt Q8NEB9); assay: Kinase panel assay (lipid kinase); assay type: biochemical; conditions: 30 μM compound, ATP 10 μM, duplicates Data 1/Data 2
T10 construct: purchased Reaction Biology Corp
Method: (§2) Every inhibitory activity of tested compounds was measured by radiolabelled method of Reaction Biology Corp). The radiolabelled ATP ([γ-^33P] ATP) replaced a substrate with ^33P-phosphorylated substrate so that the activity of a kinase was measured from the radiolabelled phosphorylated substrate. Kinase panel assay was tested at 30 μM testing compounds with an ATP concentration of 10 μM and a substrate concentration of 10 μM. % Residual activity against GSK3β was measured at 10 uM compounds 1 and 2. […] Curve fits of control compounds were performed where the enzyme activities at the highest concentration of compounds were less than 65%. The concentration of DMSO was controlled and raw data, % kinase activity was calculated relative to DMSO controls.

PIP5K1A = target: T11, PIP5K1A (Homo sapiens, UniProt Q99755); assay: Kinase panel assay (lipid kinase); assay type: biochemical; conditions: 30 μM compound, ATP 10 μM, duplicates Data 1/Data 2
T11 construct: purchased Reaction Biology Corp
Method: as §2

PI4K2A = target: T12, PI4K2A (Homo sapiens, UniProt Q9BTU6); assay: Kinase panel assay (lipid kinase); assay type: biochemical; conditions: 30 μM compound, ATP 10 μM, duplicates Data 1/Data 2
T12 construct: purchased Reaction Biology Corp
T12 sequence (Q9BTU6 whole entry): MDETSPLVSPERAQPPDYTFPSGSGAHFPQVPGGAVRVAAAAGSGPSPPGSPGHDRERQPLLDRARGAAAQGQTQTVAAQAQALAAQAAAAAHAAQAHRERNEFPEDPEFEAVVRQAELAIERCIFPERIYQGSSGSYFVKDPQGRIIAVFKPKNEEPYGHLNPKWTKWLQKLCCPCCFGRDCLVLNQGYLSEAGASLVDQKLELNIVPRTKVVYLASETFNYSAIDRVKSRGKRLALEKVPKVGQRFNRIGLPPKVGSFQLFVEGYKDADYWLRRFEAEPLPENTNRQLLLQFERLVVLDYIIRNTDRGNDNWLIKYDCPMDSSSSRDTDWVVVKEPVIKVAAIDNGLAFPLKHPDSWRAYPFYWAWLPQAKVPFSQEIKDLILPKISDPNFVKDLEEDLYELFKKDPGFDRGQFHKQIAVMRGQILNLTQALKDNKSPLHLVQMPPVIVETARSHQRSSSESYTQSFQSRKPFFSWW
Method: as §2

PI3KC2A = target: T13, PI3KC2A (Homo sapiens, UniProt O00443); assay: Kinase panel assay (lipid kinase); assay type: biochemical; conditions: 30 μM compound, ATP 10 μM, duplicates Data 1/Data 2
T13 construct: purchased Reaction Biology Corp
Method: as §2

PIP5K1C = target: T14, PIP5K1C (Homo sapiens, UniProt O60331); assay: Kinase panel assay (lipid kinase); assay type: biochemical; conditions: 30 μM compound, ATP 10 μM, duplicates Data 1/Data 2
T14 construct: purchased Reaction Biology Corp
Method: as §2

PI3Kg (p110g) = target: T15, PI3Kg (p110g) (Homo sapiens, UniProt P48736); assay: Kinase panel assay (lipid kinase); assay type: biochemical; conditions: 30 μM compound, ATP 10 μM, duplicates Data 1/Data 2
T15 construct: purchased Reaction Biology Corp

DNA-PK = target: T16, DNA-PK (Homo sapiens, UniProt P78527); assay: Kinase panel assay (radiolabelled); assay type: biochemical; conditions: 30 μM compound, ATP 10 μM, duplicates Data 1/Data 2
T16 construct: purchased Reaction Biology Corp

TRKC = target: T17, TRKC (Homo sapiens, UniProt Q16288); assay: Kinase panel assay (radiolabelled); assay type: biochemical; conditions: ATP 10 μM
T17 construct: purchased Reaction Biology Corp
T17 sequence (Q16288 32-839): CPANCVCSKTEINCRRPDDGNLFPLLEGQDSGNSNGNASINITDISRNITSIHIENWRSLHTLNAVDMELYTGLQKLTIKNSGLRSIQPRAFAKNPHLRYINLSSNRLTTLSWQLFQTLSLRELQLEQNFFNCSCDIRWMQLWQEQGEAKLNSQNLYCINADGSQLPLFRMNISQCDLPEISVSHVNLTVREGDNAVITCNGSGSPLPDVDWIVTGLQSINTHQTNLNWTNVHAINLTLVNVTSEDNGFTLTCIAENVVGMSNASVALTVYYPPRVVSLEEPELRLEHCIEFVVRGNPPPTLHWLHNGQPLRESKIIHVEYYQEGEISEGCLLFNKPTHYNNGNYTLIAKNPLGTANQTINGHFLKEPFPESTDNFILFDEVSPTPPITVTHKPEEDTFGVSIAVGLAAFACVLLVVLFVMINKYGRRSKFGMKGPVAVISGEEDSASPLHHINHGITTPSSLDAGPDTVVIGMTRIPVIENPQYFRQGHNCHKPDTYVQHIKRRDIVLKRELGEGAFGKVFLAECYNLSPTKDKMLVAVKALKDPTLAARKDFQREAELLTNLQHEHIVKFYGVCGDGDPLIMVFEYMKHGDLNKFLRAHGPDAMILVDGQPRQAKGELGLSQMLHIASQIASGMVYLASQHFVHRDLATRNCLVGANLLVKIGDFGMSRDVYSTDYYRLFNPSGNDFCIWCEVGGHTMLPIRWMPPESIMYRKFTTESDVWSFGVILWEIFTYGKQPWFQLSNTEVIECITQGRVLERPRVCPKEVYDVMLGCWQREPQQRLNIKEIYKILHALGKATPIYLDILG

JNK1 = target: T18, JNK1 (Homo sapiens, UniProt P45983); assay: Kinase panel assay (radiolabelled); assay type: biochemical; conditions: ATP 10 μM
T18 construct: purchased Reaction Biology Corp
T18 sequence (P45983 whole entry): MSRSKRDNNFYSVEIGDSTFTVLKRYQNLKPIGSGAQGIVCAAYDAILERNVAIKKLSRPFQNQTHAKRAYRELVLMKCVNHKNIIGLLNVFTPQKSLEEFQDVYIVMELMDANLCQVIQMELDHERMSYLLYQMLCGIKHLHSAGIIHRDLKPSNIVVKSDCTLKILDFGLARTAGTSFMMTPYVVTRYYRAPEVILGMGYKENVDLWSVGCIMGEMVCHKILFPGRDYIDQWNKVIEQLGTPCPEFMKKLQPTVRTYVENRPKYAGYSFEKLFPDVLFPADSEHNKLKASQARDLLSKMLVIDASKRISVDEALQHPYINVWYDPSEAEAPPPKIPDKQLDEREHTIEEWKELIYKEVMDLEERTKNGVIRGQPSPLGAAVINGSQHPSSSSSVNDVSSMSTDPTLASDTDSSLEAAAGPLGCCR

CDK2/cyclin O = target: T19, CDK2/cyclin O (Homo sapiens, UniProt P24941); conditions: cited from earlier work
T19 construct: purchased Reaction Biology Corp

CDK3/cyclin E = target: T20, CDK3/cyclin E (Homo sapiens, UniProt Q00526); conditions: cited from earlier work
T20 construct: purchased Reaction Biology Corp

P38b/MAPK11 = target: T21, P38b/MAPK11 (Homo sapiens, UniProt Q15759); conditions: cited from earlier work
T21 construct: purchased Reaction Biology Corp

[3] = 30 μM compound, duplicates Data 1/Data 2
[4] = 30 μM compound, duplicates Data 1/Data 2, read-out: % Enzyme Activity (relative to DMSO controls)
[5] = 30 μM, average ± SD, read-out: % Residual Activity at 30 μM
[6] = read-out: % Enzyme Activity (relative to DMSO controls)

T1 sequence (P49841 whole entry): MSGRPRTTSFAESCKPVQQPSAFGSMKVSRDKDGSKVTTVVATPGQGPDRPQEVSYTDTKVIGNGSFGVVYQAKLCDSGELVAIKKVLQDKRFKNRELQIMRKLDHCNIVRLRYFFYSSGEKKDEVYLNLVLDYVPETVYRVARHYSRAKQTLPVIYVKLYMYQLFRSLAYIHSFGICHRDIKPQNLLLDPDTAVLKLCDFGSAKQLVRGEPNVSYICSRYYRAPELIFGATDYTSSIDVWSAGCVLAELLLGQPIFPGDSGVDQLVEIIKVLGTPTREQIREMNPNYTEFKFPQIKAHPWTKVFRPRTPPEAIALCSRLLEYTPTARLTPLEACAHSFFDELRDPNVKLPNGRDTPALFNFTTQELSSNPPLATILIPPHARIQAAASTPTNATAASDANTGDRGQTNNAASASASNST
T2 sequence (Q13464 whole entry): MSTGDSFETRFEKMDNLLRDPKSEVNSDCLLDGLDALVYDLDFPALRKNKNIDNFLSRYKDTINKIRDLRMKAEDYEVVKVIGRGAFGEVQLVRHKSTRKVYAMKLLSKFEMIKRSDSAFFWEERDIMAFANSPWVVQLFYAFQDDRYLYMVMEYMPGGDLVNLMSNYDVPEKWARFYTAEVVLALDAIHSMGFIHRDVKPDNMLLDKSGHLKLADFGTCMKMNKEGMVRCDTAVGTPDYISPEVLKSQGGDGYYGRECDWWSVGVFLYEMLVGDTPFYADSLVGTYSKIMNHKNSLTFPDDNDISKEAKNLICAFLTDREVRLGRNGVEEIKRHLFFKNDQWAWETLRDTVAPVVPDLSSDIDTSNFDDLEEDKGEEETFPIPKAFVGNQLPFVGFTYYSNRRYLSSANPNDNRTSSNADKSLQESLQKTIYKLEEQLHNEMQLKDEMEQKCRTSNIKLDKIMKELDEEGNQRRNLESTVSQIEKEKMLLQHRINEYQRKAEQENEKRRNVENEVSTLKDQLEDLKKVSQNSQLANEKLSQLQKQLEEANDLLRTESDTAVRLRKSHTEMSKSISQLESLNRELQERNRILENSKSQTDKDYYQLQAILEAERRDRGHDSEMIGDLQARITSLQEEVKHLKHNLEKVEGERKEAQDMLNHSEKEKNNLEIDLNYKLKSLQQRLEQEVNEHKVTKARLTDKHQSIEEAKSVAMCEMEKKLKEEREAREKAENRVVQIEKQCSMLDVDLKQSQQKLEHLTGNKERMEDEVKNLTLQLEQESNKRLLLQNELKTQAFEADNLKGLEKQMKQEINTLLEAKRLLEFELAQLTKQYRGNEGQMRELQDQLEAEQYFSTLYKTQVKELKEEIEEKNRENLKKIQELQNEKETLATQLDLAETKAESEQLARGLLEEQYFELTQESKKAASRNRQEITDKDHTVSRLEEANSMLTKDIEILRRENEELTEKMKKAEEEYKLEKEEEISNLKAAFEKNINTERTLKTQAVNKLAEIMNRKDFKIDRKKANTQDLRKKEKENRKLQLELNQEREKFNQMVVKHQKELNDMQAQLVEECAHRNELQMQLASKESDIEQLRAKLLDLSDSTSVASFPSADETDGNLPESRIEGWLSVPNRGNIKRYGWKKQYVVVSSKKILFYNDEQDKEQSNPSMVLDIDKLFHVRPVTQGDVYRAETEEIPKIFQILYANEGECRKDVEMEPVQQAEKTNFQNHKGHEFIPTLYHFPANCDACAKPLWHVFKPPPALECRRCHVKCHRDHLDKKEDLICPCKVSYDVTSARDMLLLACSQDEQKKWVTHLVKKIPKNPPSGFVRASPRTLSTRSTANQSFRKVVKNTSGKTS

SMILES: O=C1C=CC2(C=C1)OCC(Cc1cn(-c3cccc(Cl)c3)nn1)C(=O)N2c1ccccc1 (centres unmarked) [2d, 3-((1-(3-Chlorophenyl)-1H-1,2,3-triazol-4-yl)methyl)-5-phenyl-1-oxa-5-azaspiro[5.5]undeca-7,10-diene-4,9-dione]
- % Enzyme Activity (relative to DMSO controls) (GSK3b; 30 μM compound, ATP 10 μM, duplicates Data 1/Data 2): 1.64%
- remaining activity at 30 µM (GSK3b; 30 μM compound, ATP 10 μM, duplicates Data 1/Data 2, read-out: % Enzyme Activity (relative to DMSO controls)): 2.81%
- remaining activity at 30 µM (GSK3b; 30 μM, ATP 10 μM, average ± SD, read-out: % Residual Activity at 30 μM): 2.2 ± 0.8%
- inhibition at 30 µM (GSK3b; 30 μM, read-out: inhibition of GSK-3β in 70-kinase panel): > 90%
- % Enzyme Activity (relative to DMSO controls) (ROCK1; [3]): 101.05%
- remaining activity at 30 µM (ROCK1; [4]): 105%
- remaining activity at 30 µM (ROCK1; [5]): 103 ± 3.1%
- % Enzyme Activity (relative to DMSO controls) (JNK2; [3]): 79.67%
- remaining activity at 30 µM (JNK2; [4]): 80.3%
- remaining activity at 30 µM (JNK2; [5]): 80 ± 0.4%
- remaining activity at 30 µM (AMPK(A1/B1/G1) [1]): 60.9%
- % Enzyme Activity (relative to DMSO controls) (AMPK(A1/B1/G1) [2]): 60.04%
- % Enzyme Activity (relative to DMSO controls) (TRKA; [3]): 115.47%
- remaining activity at 30 µM (TRKA; [4]): 119%
- remaining activity at 30 µM (TRKA; [5]): 117 ± 2.6%
- TNF-α level (TNF-α): concentration-dependent manner
- IL-6 level (IL-6): concentration-dependent manner
- % Enzyme Activity (relative to DMSO controls) (DAPK2; [3]): 109.81%
- remaining activity at 30 µM (DAPK2; [4]): 111%
- remaining activity at 30 µM (DAPK2; [5]): 110.2 ± 0.6%
- % Enzyme Activity (relative to DMSO controls) (TRKC (G623E)): 114.78%
- remaining activity at 30 µM (TRKC (G623E); [6]): 118%
- % Enzyme Activity (relative to DMSO controls) (EEF2K): 101.96%
- remaining activity at 30 µM (EEF2K; [6]): 103%
- % Enzyme Activity (relative to DMSO controls) (PI3KC3): 98.59%
- remaining activity at 30 µM (PI3KC3; [6]): 99.8%
- % Enzyme Activity (relative to DMSO controls) (PIP5K1A): 84.84%
- remaining activity at 30 µM (PIP5K1A; [6]): 86%
- % Enzyme Activity (relative to DMSO controls) (PI4K2A): 74.47%
- remaining activity at 30 µM (PI4K2A; [6]): 75.9%
- % Enzyme Activity (relative to DMSO controls) (PI3KC2A): 123.51%
- remaining activity at 30 µM (PI3KC2A; [6]): 122%
- % Enzyme Activity (relative to DMSO controls) (PIP5K1C): 87.90%
- remaining activity at 30 µM (PIP5K1C; [6]): 88.2%
- % Enzyme Activity (relative to DMSO controls) (PI3Kg (p110g)): 85.15%
- remaining activity at 30 µM (PI3Kg (p110g); [6]): 87.4%
- % Enzyme Activity (relative to DMSO controls) (DNA-PK): 101.60%
- remaining activity at 30 µM (DNA-PK; [6]): 103%
- % Enzyme Activity (relative to DMSO controls) (TRKC; [3]): 102.60%
- remaining activity at 30 µM (TRKC; [4]): 108%
- remaining activity at 30 µM (TRKC; [5]): 105 ± 3.9%
- % Enzyme Activity (relative to DMSO controls) (JNK1; [3]): 82.67%
- remaining activity at 30 µM (JNK1; [4]): 82.7%
- remaining activity at 30 µM (JNK1; [5]): 82.7 ± 0.1%

SMILES: O=C1C=CC2(C=C1)OCC(Cc1cc(C(F)(F)F)cc(C(F)(F)F)c1)C(=O)N2c1ccccc1 (racemic) [1c]
- % Residual Activity at 30 μM (CDK2/cyclin O): 43.1 ± 1.0%
- % Residual Activity at 30 μM (CDK3/cyclin E): 59.3 ± 1.2%
- % Residual Activity at 30 μM (P38b/MAPK11): 87.0 ± 1.1%
